≈ marks a conversion by molar mass, not a printed value. Entries after “also recorded” stand apart in the source; their conditions may differ. Where two headings read alike, the source gives them in different places.
Tests used:
[1] = tested on: Plasmodium falciparum 3D7-A10 parasites; assay: Stage specificity assay (8-h exposure of synchronized stages, IC50^8h); assay type: cell-based; details: for IC50: Plasmodium falciparum
[2] = 1.5 h, 500 μM, pH 7.4
[3] = tested on: asynchronous 3D7-A10 parasite cultures; assay: Standard 72-h exposure asexual blood stage susceptibility assay (IC50^72h); assay type: cell-based, Plasmodium falciparum; details: Plasmodium falciparum, 3D7, 72 h, read-out: Overall (72hr assay) Mean IC50 (IC50^72h)
[4] = tested on: 3D7-MR4 trophozoite parasite-infected RBCs; assay: Metabolomic profiling (hydrophilic metabolite changes, UHPLC-MS); assay type: cell-based, Plasmodium falciparum
physchem = details: pH 7.4, aqueous buffer, kinetic from dmso stock
[5] = 10 × IC50^72h, 2.5 hr, trophozoites

Compound: Clc1ccc2c(N3CCN(CCCN4CCN(c5ccnc6cc(Cl)ccc56)CC4)CC3)ccnc2c1 [Piperaquine, reference compound]
- Ratio lowest IC50 8hr/IC50 72hr ([1]; 3D7-A10): 1.7
- overall activity profile (stages on which active) ([1]; 8-h exposures): activity on all stages
- IC50 ([1]; 3D7, read-out: Early rings Mean IC50 (IC50^8h), 8-h exposure 0–8 hr, 3D7-A10, survival at 60 h): 0.0262 µM
- IC50 ([1]; 3D7, read-out: Early trophozoites Mean IC50 (IC50^8h), 8-h exposure 16–24 hr, 3D7-A10, survival at 60 h): 0.0274 µM
- IC50 ([1]; 3D7, read-out: Late rings Mean IC50 (IC50^8h), 8-h exposure 8–16 hr, 3D7-A10, survival at 60 h): 0.0463 µM
- IC50 ([1]; 3D7, read-out: Late trophozoites Mean IC50 (IC50^8h), 8-h exposure 24–32 hr, 3D7-A10, survival at 60 h): 0.0329 µM
- IC50 ([1]; 3D7, read-out: Schizonts Mean IC50 (IC50^8h), 8-h exposure 32–40 hr, 3D7-A10, survival at 60 h): 0.067 µM
- IC50^8h relative to IC50^72h value ([1]; most susceptible stages): ≤ 2 fold
- Stage of peak activity (Figure 6) ([1]; period when the parasite was most susceptible (lowest IC50^8h)): ring and trophozoite stages; also recorded: rings and trophozoites
- Ratio fil./std. (absorbance filtrate/standard) [2]: 0.69
- IC50 [3]: 0.0154 µM
- changes within the set of metabolites detected (low fold change group) [4, 5]: did not induce major changes
- decreased levels of dCDP, dTMP, guanosine, and guanine [4, 5]: ≥ 2 fold
- Log2(fold changes) 3-phosphoglycerate ([4]; metabolite 3-phosphoglycerate, log2 fold change): 0.1576
- Log2(fold changes) 4-Pyridoxic acid ([4]; metabolite 4-Pyridoxic acid, log2 fold change): 0.0000
- Log2(fold changes) 4-aminobutyrate ([4]; metabolite 4-aminobutyrate, log2 fold change): -0.0347
- Log2(fold changes) 4-phosphopantetheine ([4]; metabolite 4-phosphopantetheine, log2 fold change): 0.0000
- Log2(fold changes) 4-phosphopantothenate ([4]; metabolite 4-phosphopantothenate, log2 fold change): -0.1578
- Log2(fold changes) 5-aminopentanoic acid ([4]; metabolite 5-aminopentanoic acid, log2 fold change): 0.0000
- Log2(fold changes) 5-methyl-THF ([4]; metabolite 5-methyl-THF, log2 fold change): 0.0000
- Log2(fold changes) 5-phosphoribosyl-1-pyrophosphate ([4]; metabolite 5-phosphoribosyl-1-pyrophosphate, log2 fold change): 0.2840
- Log2(fold changes) 6-phospho-D-gluconate ([4]; metabolite 6-phospho-D-gluconate, log2 fold change): 0.0537
- Log2(fold change) HVDD ([4]; metabolite HVDD): 0.0000
- Log2(fold change) Hydroxyisocaproic acid ([4]; metabolite Hydroxyisocaproic acid): 0.0000
- Log2(fold change) IDP ([4]; metabolite IDP): -0.0045
- Log2(fold change) IMP ([4]; metabolite IMP): -0.1159
- Log2(fold change) Inositol ([4]; metabolite Inositol): 0.0000
- Log2(fold change) Isopentyl-PP ([4]; metabolite Isopentyl-PP): 0.0000
- Log2(fold change) L-arginino-succinate ([4]; metabolite L-arginino-succinate): 0.0000
- Log2(fold change) LD ([4]; metabolite LD): 0.0483
- Log2(fold change) Myristoyl/tetradecanoyl-CoA ([4]; metabolite Myristoyl/tetradecanoyl-CoA): 0.0000
- Log2(fold change) N-Acetyl-L-alanine ([4]; metabolite N-Acetyl-L-alanine): -0.2552
- Log2(fold change) N-acetyl-L-ornithine ([4]; metabolite N-acetyl-L-ornithine): -0.0188
- Log2(fold change) N-acetyl-glucosamine-1/6-phosphate ([4]; metabolite N-acetyl-glucosamine-1/6-phosphate): -0.1206
- Log2(fold change) N-acetyl-glutamate ([4]; metabolite N-acetyl-glutamate): -0.0276
- Log2(fold change) N-acetyl-glutamine ([4]; metabolite N-acetyl-glutamine): 0.0000
- Log2(fold change) N-carbamoyl-L-aspartate ([4]; metabolite N-carbamoyl-L-aspartate): -0.1894
- Log2(fold change) NAD+ ([4]; metabolite NAD+): -0.0736
- Log2(fold change) NADH ([4]; metabolite NADH): 0.1619
- Log2(fold change) NADP+ ([4]; metabolite NADP+): 0.0160
- Log2(fold change) NADPH ([4]; metabolite NADPH): 0.1653
- Log2(fold change) O-acetyl-L-serine ([4]; metabolite O-acetyl-L-serine): 0.0000
- Log2(fold change) Octoluse 8/1P ([4]; metabolite Octoluse 8/1P): -0.0774
- Log2(fold change) Octoluse Bisphosphate ([4]; metabolite Octoluse Bisphosphate): 0.0393
- Log2(fold change) PD ([4]; metabolite PD): -0.0500
- Log2(fold change) PE ([4]; metabolite PE): 0.0291
- Log2(fold change) PEE ([4]; metabolite PEE): 0.1599
- Log2(fold change) PEEK ([4]; metabolite PEEK): 0.3927
- Log2(fold change) PVNF ([4]; metabolite PVNF): 0.0618
- Log2(fold change) Pyroglutamic acid ([4]; metabolite Pyroglutamic acid): -0.2255
- Log2(fold change) Pyrophosphate ([4]; metabolite Pyrophosphate): 0.0000
- Log2(fold change) Ribose-5-phosphate ([4]; metabolite Ribose-5-phosphate): -0.0505
- Log2(fold change) S-adenosyl-L-homocysteine ([4]; metabolite S-adenosyl-L-homocysteine): -0.1747
- Log2(fold change) S-adenosyl-L-methioninamine ([4]; metabolite S-adenosyl-L-methioninamine): 0.0000
- Log2(fold change) S-adenosyl-L-methionine ([4]; metabolite S-adenosyl-L-methionine): 0.0000
- Log2(fold change) S-methyl-5'-thioadenosine ([4]; metabolite S-methyl-5'-thioadenosine): -5.54e-5
- Log2(fold change) SD ([4]; metabolite SD): 0.0815
- Log2(fold change) SDL ([4]; metabolite SDL): 0.0000
- Log2(fold change) SID ([4]; metabolite SID): 0.0000
- Log2(fold change) Sedoheptulose bisphosphate ([4]; metabolite Sedoheptulose bisphosphate): 0.2230
- Log2(fold change) Thiamine pyrophosphate ([4]; metabolite Thiamine pyrophosphate): -0.1023
- Log2(fold changes) UDP-D-glucose ([4]; metabolite UDP-D-glucose, log2 fold change): -0.0097
- Log2(fold changes) UDP-D-glucuronate ([4]; metabolite UDP-D-glucuronate, log2 fold change): 0.0081
- Log2(fold changes) UDP-N-acetyl-glucosamine ([4]; metabolite UDP-N-acetyl-glucosamine, log2 fold change): -0.0956
- Log2(fold changes) UDP ([4]; metabolite UDP, log2 fold change): -0.8655
- Log2(fold changes) UMP ([4]; metabolite UMP, log2 fold change): -0.2304
- Log2(fold changes) UTP ([4]; metabolite UTP, log2 fold change): 0.0058
- Log2(fold change) hydroxyphenylpyruvate ([4]; metabolite hydroxyphenylpyruvate): 0.0000
- Log2(fold change) hydroxyproline/Aminolevulinate ([4]; metabolite hydroxyproline/Aminolevulinate): 0.0000
- Log2(fold change) hypoxanthine ([4]; metabolite hypoxanthine): 0.0000
- Log2(fold change) indole ([4]; metabolite indole): 0.0000
- Log2(fold change) inosine ([4]; metabolite inosine): -0.3997
- Log2(fold change) isoleucine ([4]; metabolite isoleucine): 0.1103
- Log2(fold change) lactate ([4]; metabolite lactate): -0.4255
- Log2(fold change) leucine ([4]; metabolite leucine): -0.0845
- Log2(fold change) lysine ([4]; metabolite lysine): 0.0614
- Log2(fold change) malate ([4]; metabolite malate): -0.0964
- Log2(fold change) maleic acid ([4]; metabolite maleic acid): -0.0992
- Log2(fold change) methionine ([4]; metabolite methionine): 0.1002
- Log2(fold change) myo-inositol ([4]; metabolite myo-inositol): -0.6606
- Log2(fold change) nicotinamide mononucleotide ([4]; metabolite nicotinamide mononucleotide): -0.1524
- Log2(fold change) nicotinate ([4]; metabolite nicotinate): -0.4222
- Log2(fold change) ornithine ([4]; metabolite ornithine): 0.0000
- Log2(fold change) orotate ([4]; metabolite orotate): -0.5698
- Log2(fold change) orotidine-5'-phosphate ([4]; metabolite orotidine-5'-phosphate): -0.6109
- Log2(fold change) oxaloacetate ([4]; metabolite oxaloacetate): 0.0000
- Log2(fold change) p-aminobenzoate ([4]; metabolite p-aminobenzoate): 0.0000
- Log2(fold change) p-hydroxybenzoate ([4]; metabolite p-hydroxybenzoate): 0.0000
- Log2(fold change) pantothenate ([4]; metabolite pantothenate): -0.1253
- Log2(fold change) phenylalanine ([4]; metabolite phenylalanine): -0.1188
- Log2(fold change) phenylpyruvate ([4]; metabolite phenylpyruvate): 0.0000
- Log2(fold change) phosphoenolpyruvate ([4]; metabolite phosphoenolpyruvate): 0.1409
- Log2(fold change) prephenate ([4]; metabolite prephenate): 0.0000
- Log2(fold change) proline ([4]; metabolite proline): -0.1490
- Log2(fold change) pyridoxine ([4]; metabolite pyridoxine): -0.1465
- Log2(fold change) pyruvate ([4]; metabolite pyruvate): -0.2297
- Log2(fold change) riboflavin ([4]; metabolite riboflavin): 0.0675
- Log2(fold change) ribose ([4]; metabolite ribose): 0.0000
- Log2(fold change) ribose-phosphate ([4]; metabolite ribose-phosphate): -0.1362
- Log2(fold change) ribulose-5-phosphate ([4]; metabolite ribulose-5-phosphate): -0.0392
- Log2(fold change) serine ([4]; metabolite serine): 0.0266
- Log2(fold change) sn-glycerol-3-phosphate ([4]; metabolite sn-glycerol-3-phosphate): 0.0600
- Log2(fold change) succinate/Methylmalonic acid ([4]; metabolite succinate/Methylmalonic acid): 0.0813
- Log2(fold change) succinyl-CoA/methylmalonyl-CoA ([4]; metabolite succinyl-CoA/methylmalonyl-CoA): 0.0000
- Log2(fold change) taurine ([4]; metabolite taurine): 0.4424
- Log2(fold change) thiamine ([4]; metabolite thiamine): -0.0999
- Log2(fold change) threonine/homoserine ([4]; metabolite threonine/homoserine): -0.0376
- Log2(fold change) thymidine ([4]; metabolite thymidine): 0.0000
- Log2(fold changes) thymine ([4]; metabolite thymine, log2 fold change): 0.0000
- Log2(fold changes) trehalose-6-Phosphate ([4]; metabolite trehalose-6-Phosphate, log2 fold change): 0.0000
- Log2(fold changes) tryptophan ([4]; metabolite tryptophan, log2 fold change): -0.0757
- Log2(fold changes) tyrosine ([4]; metabolite tyrosine, log2 fold change): 0.0866
- Log2(fold changes) uridine ([4]; metabolite uridine, log2 fold change): -0.4854
- solubility at 1.5 h (physchem): 100 to 500 µM (≈ 53.6 to 268 µg/mL)
